Laboratory results as given in patent publication US9101638B2, “Boronic acid derivatives and therapeutic uses thereof” (Rempex Pharmaceuticals, Inc., priority 2013, dated 2015).
pIC50, pKi: −log10 of the molar value. Like-named read-outs stand apart in the source and are kept apart here.

How the values were obtained:
KP1005 (CTX-M-14) = assay: Potentiation of aztreonam, strain KP1005; type: cell-based
ec308 (SHV-5) [1] = assay: Potentiation of aztreonam, strain ec308; type: cell-based; conditions: minimum BLI concentration inhibiting growth with 4 μg/mL aztreonam
ec302 (TEM-10) = assay: Potentiation of aztreonam, strain ec302; type: cell-based
KP1004 (K-2) = assay: Potentiation of aztreonam, strain KP1004; type: cell-based; conditions: minimum BLI concentration inhibiting growth with 4 μg/mL aztreonam
ec308 (SHV-5) [2] = assay: Potentiation of tigemonam, strain ec308; type: cell-based; conditions: minimum BLI concentration inhibiting growth with 4 μg/mL tigemonam
EC1010 (CMY-6) = type: cell-based
SHV-12 = SHV-12 (Klebsiella pneumoniae, UniProt P0AD64, E235K/G234S/L31Q); assay: Inhibition of nitrocefin cleavage by purified SHV-12; type: biochemical
How it was run: (§1)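 10 min RT preincubation, enzyme with inhibitor series in reaction buffer. Substrate nitrocefin; kinetic read 490 nm, 10 sec intervals, 10 min total.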

KPC-2 = KPC-2 (Klebsiella pneumoniae, UniProt Q9F663); assay: Inhibition of nitrocefin cleavage by purified KPC-2; type: biochemical; conditions: nitrocefin reporter substrate, purified enzyme; read-out: Ki (KPC-2, NCF)
How it was run: as §1

PAM1154/KPC-2 = assay: Biapenem potentiation in PAM1154/KPC-2 (MexAB-OprM lacking); type: cell-based, Pseudomonas aeruginosa
Procedure: Efflux of BLIs from Pseudomonas aeruginosa by the MexAB-OprM efflux pump was also evaluated. […] Due to expression of KPC-2 both strains became resistant to biapenem. […] Potency of BLIs to potentiate biapenem in these strains was determined. […] The ratio of MPC64 values for each BLI in PAM1032/KPC-2 (efflux proficient) and PAM1154/KPC-2 (efflux deficient) was determined to generate the Efflux Index (EI).

Chymotrypsin = biological target: T1, Chymotrypsin (Bos taurus, UniProt P00766); assay: Serine protease inhibition: chymotrypsin; type: biochemical, mammalian; conditions: Table 8A, class symbols; read-out: IC50 Chymotrypsin
T1 construct: purchased Calbiochem 230832
Procedure: (§2) The effect of selected BLIs on the enzymatic activity of some common mammalian serine proteases was evaluated.
(§3) 50 μl of the diluted enzyme was mixed with 50 μl of inhibitor at various concentrations and 50 μl of corresponding buffer (Table 7). Reaction mixtures were incubated for 10 min at 37° C. Subsequently, 50 μl of corresponding substrate (Table 7) was added and absorbance or fluorescence was monitored for 30 min on SpectraMax M2 plate reader (Molecular Devices). 4-(2-Aminoethyl)benzenesulfonyl fluoride hydrochloride (AEBSF) and leupeptin were used as positive controls. Rates of reaction were calculated and presented relative to “no treatment” control.

Thrombin = biological target: T2, Thrombin (Homo sapiens, UniProt P00734); assay: Serine protease inhibition: thrombin; type: biochemical, mammalian; conditions: Table 8A, class symbols; read-out: IC50 Thrombin
T2 construct: Thrombin; MPBio; 19491880; purchased MPBio 19491880
Procedure: as §2, §3

Elastase = biological target: T3, Elastase (Sus scrofa, UniProt P00772); assay: Serine protease inhibition: elastase; type: biochemical, mammalian; conditions: Table 8A, class symbols; read-out: IC50 Elastase
T3 construct: purchased Calbiochem 324682
Procedure: as §2, §3

Chymase = biological target: T4, Chymase (Homo sapiens, UniProt P23946); assay: Serine protease inhibition: chymase; type: biochemical, mammalian; conditions: Table 8A, class symbols; read-out: IC50 Chymase
T4 construct: purchased Enzo Lifescience BML-SE281
T4 sequence (P23946 22-247): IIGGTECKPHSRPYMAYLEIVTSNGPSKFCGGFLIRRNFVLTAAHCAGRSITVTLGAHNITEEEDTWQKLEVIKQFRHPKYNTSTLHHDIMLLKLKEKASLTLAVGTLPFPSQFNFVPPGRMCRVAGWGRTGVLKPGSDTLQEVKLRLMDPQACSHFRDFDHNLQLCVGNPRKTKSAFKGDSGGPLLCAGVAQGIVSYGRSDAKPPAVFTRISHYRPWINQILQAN
Procedure: as §2, §3

CathepsinA = biological target: T5, CathepsinA (Homo sapiens, UniProt P10619); assay: Serine protease inhibition: cathepsin A; type: biochemical, mammalian; conditions: Table 8B; read-out: IC50 CathepsinA
T5 construct: purchased R&D Systems 1049-SE
T5 sequence (P10619 29-480): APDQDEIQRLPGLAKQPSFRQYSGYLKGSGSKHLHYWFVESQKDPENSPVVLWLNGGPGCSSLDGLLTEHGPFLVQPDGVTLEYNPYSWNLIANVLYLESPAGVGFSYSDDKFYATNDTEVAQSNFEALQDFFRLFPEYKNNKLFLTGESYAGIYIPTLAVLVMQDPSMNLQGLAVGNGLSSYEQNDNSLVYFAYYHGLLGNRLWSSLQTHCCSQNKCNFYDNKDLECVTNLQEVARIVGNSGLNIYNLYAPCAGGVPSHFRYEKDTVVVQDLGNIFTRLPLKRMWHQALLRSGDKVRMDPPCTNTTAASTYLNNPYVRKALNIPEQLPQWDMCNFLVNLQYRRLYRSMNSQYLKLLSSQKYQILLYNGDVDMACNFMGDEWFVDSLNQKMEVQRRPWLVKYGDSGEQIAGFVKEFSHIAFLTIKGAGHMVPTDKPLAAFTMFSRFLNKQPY
How it was run: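 Enzyme + inhibitor (various concns), enzyme-specific buffer, 10 min, 37° C; add matching substrate; read absorbance/fluorescence 30 min. Rates vs no-treatment control. AEBSF, leupeptin as positive controls.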

[3] = biological target: T6, Dipeptidyl peptidase 7 (DPP7) (Homo sapiens, UniProt Q9UHL4); assay: Serine protease inhibition: DPP7; type: biochemical, mammalian; conditions: Table 8B; read-out: IC50 DPP7
T6 construct: purchased R&D Systems 3438-SE
Procedure: as §2, §3

[4] = biological target: T7, Dipeptidyl peptidase 8 (DPP8) (Homo sapiens, UniProt Q6V1X1); assay: Serine protease inhibition: DPP8; type: biochemical, mammalian; conditions: Table 8B; read-out: IC50 DPP8
T7 construct: purchased BPS Bioscience 80080
Procedure: as §2, §3

[5] = biological target: T8, Dipeptidyl peptidase 9 (DPP9) (Homo sapiens, UniProt Q86TI2); assay: Serine protease inhibition: DPP9; type: biochemical, mammalian; conditions: Table 8B; read-out: IC50 DPP9
T8 construct: purchased BPS Bioscience 80090
Procedure: as §2, §3

KP1009 (CTX-M-15) = assay: Potentiation of tigemonam, strain KP1009; conditions: minimum BLI concentration inhibiting growth with 4 μg/mL tigemonam

T3 sequence (P00772 27-266): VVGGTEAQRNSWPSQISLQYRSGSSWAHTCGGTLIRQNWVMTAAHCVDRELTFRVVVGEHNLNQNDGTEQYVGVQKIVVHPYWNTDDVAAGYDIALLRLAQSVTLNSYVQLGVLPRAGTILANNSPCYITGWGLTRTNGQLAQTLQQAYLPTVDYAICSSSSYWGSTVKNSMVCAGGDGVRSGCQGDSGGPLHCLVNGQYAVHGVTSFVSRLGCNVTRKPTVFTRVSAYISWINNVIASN
T8 sequence (Q86TI2 whole entry): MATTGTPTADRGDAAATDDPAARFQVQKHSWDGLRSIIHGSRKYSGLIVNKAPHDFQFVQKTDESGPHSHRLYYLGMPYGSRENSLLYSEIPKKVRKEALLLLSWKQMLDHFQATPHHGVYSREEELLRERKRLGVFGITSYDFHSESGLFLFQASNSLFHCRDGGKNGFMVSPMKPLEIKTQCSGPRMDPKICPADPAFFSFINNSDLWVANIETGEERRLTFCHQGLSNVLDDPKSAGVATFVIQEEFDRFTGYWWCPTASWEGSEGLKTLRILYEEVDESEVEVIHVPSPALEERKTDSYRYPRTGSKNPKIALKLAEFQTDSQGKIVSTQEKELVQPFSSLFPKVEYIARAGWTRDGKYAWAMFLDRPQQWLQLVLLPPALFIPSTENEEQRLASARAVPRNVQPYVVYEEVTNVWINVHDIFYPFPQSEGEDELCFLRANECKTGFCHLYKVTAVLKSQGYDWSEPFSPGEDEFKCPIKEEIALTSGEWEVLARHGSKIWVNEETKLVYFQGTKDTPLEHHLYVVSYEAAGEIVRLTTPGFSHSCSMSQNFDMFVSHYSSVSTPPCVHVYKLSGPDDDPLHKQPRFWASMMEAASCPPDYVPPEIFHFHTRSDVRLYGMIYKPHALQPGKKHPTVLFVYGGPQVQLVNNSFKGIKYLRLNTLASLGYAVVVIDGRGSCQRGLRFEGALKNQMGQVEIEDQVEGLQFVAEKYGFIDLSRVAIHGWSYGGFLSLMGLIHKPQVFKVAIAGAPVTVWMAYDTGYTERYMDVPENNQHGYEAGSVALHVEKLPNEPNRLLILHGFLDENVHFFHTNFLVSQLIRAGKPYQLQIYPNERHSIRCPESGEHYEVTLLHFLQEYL
Sequence of SHV-12 (P0AD64 22-286 L31Q/G234S/E235K): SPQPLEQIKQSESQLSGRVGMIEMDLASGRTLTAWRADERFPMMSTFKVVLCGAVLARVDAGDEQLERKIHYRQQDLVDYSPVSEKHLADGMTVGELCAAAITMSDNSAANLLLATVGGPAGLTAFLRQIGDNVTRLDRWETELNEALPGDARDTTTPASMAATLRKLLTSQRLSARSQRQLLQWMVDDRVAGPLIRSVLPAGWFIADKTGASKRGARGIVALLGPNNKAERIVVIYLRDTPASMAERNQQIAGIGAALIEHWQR
Sequence of KPC-2 (Q9F663 25-293, looked up, species assumed): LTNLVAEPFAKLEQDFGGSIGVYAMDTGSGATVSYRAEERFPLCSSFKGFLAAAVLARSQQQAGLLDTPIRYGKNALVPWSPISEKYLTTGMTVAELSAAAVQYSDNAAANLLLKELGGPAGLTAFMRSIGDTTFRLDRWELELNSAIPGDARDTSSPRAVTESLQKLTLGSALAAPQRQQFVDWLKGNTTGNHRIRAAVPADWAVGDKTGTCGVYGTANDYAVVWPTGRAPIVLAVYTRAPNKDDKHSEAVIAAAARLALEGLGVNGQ
T7 sequence (Q6V1X1 whole entry): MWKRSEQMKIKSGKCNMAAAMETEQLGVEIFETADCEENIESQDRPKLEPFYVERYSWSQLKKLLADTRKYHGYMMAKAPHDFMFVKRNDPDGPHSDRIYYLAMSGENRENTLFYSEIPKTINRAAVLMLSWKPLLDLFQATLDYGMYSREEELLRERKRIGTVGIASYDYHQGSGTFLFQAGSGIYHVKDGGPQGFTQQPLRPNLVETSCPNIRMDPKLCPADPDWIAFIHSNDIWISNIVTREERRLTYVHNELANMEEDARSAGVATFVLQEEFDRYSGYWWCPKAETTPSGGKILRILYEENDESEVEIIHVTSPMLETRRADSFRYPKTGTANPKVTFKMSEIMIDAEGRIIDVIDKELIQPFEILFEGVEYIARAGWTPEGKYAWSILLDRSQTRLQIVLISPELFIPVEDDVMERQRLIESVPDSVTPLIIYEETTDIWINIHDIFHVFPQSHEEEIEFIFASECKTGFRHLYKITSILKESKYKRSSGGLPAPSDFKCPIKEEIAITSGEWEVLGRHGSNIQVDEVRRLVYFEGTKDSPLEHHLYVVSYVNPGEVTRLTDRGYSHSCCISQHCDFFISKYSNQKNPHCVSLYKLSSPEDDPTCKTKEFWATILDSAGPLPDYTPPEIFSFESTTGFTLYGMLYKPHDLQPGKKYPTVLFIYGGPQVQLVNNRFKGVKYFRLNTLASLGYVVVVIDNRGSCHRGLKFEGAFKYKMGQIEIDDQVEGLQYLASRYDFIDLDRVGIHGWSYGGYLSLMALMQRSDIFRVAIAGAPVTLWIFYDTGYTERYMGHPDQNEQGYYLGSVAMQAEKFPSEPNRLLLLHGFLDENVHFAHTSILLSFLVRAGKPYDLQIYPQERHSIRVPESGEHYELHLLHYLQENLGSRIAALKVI

Structure (SMILES) | AZT MPC4 CTX-M-14 KP1005 (KP1005 (CTX-M-14)) | AZT MPC4 SHV-5 ec308 (ec308 (SHV-5) [1]) | AZT MPC4 TEM-10 ec302 (ec302 (TEM-10)) | AZT MPC4 K-2 KP1004 (KP1004 (K-2)) | TIG MPC4 SHV-5 ec308 (ec308 (SHV-5) [2]) | TIG MPC4 CMY-6 EC1010 (EC1010 (CMY-6)) | pKi (SHV-12; nitrocefin reporter substrate, purified enzyme, read-out: Ki (SHV-12, NCF)) | pKi (KPC-2) | PAM1154/KPC-2 Biapenem MPC64 (PAM1154/KPC-2) | pIC50 (Chymotrypsin) | pIC50 (Thrombin) | pIC50 (Elastase) | pIC50 (Chymase) | pIC50 (CathepsinA) | pIC50 [3] | pIC50 [4] | pIC50 [5] | TIG MPC4 CTX-M-15 KP1009 (KP1009 (CTX-M-15)) | pKi (SHV-12)
O=C(CSC(F)F)N[C@H]1Cc2cccc(C(=O)O)c2OB1O [Compound 3, (R)-3-(2-(difluoromethylthio)acetamido)-2-hydroxy-3,4-dihydro-2H-benzo[e][1,2]oxaborinine-8-carboxylic acid] | X (key: X = MIC of less than 1 μg/mL; Y = MIC of 1 μg/mL to 10 μg/mL; Z = MIC of greater than 10 μg/mL) | X (X = MIC of less than 1 μg/mL) | Y (key: X = MIC of less than 1 μg/mL; Y = MIC of 1 μg/mL to 10 μg/mL; Z = MIC of greater than 10 μg/mL) | Y (Y = MIC of 1 μg/mL to 10 μg/mL) | X (X = MIC of less than 1 μg/mL) | X (key: X = MIC of less than 1 μg/mL; Y = MIC of 1 μg/mL to 10 μg/mL; Z = MIC of greater than 10 μg/mL) | > 9.00 | < 8.00 | X (key: X = Less than 10; Y = 10 to 40; Z Greater than 40) | < 3.10 | < 3.10 | < 3.10 | 3.10 to 3.52 | > 4.82 | < 3.30 | < 3.30 | < 3.30 | X (X = MIC of less than 1 μg/mL) | 
CSC(=O)N[C@H]1Cc2cccc(C(=O)O)c2OB1O [Compound 11, (R)-2-hydroxy-3-(methylthiocarbonylamino)-3,4-dihydro-2H-benzo[e][1,2]oxaborinine-8-carboxylic acid] | Y (key: X = MIC of less than 1 μg/mL; Y = MIC of 1 μg/mL to 10 μg/mL; Z = MIC of greater than 10 μg/mL) | X (X = MIC of less than 1 μg/mL) | Y (key: X = MIC of less than 1 μg/mL; Y = MIC of 1 μg/mL to 10 μg/mL; Z = MIC of greater than 10 μg/mL) | Y (Y = MIC of 1 μg/mL to 10 μg/mL) | Y (Y = MIC of 1 μg/mL to 10 μg/mL) | X (key: X = MIC of less than 1 μg/mL; Y = MIC of 1 μg/mL to 10 μg/mL; Z = MIC of greater than 10 μg/mL) |  | < 8.00 | X (key: X = Less than 10; Y = 10 to 40; Z Greater than 40) | < 3.10 | < 3.10 | < 3.10 | < 3.10 | 3.30 to 4.82 | < 3.30 | < 3.30 | < 3.30 | Y (Y = MIC of 1 μg/mL to 10 μg/mL) | > 9.00
